Assay results published in the supplement of paper PMC11451515.

Tested on: SEM cells
Assay: cell viability relative to DMSO control; higher = less cytotoxic
Settings: 48 h
Outline: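 NOMO1 or SEM cells were plated at 500 cells/well and P12-Ichikawa cells at 1000 cells/well in 1536-well plates (5 μl), after each leukemia line had been adapted for at least four passages in each medium. Pin dosing delivered library compounds in DMSO at 11 threefold concentrations, 47 μM to 0.79 nM. CellTiter-Glo One luminescence was read after 48 h at 37°C. Viability is reported as a per-plate percentage of DMSO wells, with cell-free wells as background.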

[1] = HPLM + 10% dialyzed FBS, 0.000781 µM
[2] = HPLM + 10% dialyzed FBS, 0.00234 µM
[3] = HPLM + 10% dialyzed FBS, 0.00702 µM
[4] = HPLM + 10% dialyzed FBS, 0.0211 µM
[5] = HPLM + 10% dialyzed FBS, 0.0632 µM
[6] = HPLM + 10% dialyzed FBS, 0.19 µM
[7] = HPLM + 10% dialyzed FBS, 0.569 µM
[8] = HPLM + 10% dialyzed FBS, 1.71 µM
[9] = HPLM + 10% dialyzed FBS, 5.12 µM
[10] = HPLM + 10% dialyzed FBS, 15.4 µM
[11] = HPLM + 10% dialyzed FBS, 46.1 µM
[12] = RPMI 5 mM glucose + 10% FBS, 0.000781 µM
[13] = RPMI 5 mM glucose + 10% FBS, 0.00234 µM
[14] = RPMI 5 mM glucose + 10% FBS, 0.00702 µM
[15] = RPMI 5 mM glucose + 10% FBS, 0.0211 µM
[16] = RPMI 5 mM glucose + 10% FBS, 0.0632 µM
[17] = RPMI 5 mM glucose + 10% FBS, 0.19 µM
[18] = RPMI 5 mM glucose + 10% FBS, 0.569 µM
[19] = RPMI 5 mM glucose + 10% FBS, 1.71 µM
[20] = RPMI 5 mM glucose + 10% FBS, 5.12 µM
[21] = RPMI 5 mM glucose + 10% FBS, 15.4 µM
[22] = RPMI 5 mM glucose + 10% FBS, 46.1 µM
[23] = RPMI 5 mM glucose + 10% dialyzed FBS, 0.000781 µM
[24] = RPMI 5 mM glucose + 10% dialyzed FBS, 0.00234 µM
[25] = RPMI 5 mM glucose + 10% dialyzed FBS, 0.00702 µM
[26] = RPMI 5 mM glucose + 10% dialyzed FBS, 0.0211 µM
[27] = RPMI 5 mM glucose + 10% dialyzed FBS, 0.0632 µM
[28] = RPMI 5 mM glucose + 10% dialyzed FBS, 0.19 µM
[29] = RPMI 5 mM glucose + 10% dialyzed FBS, 0.569 µM
[30] = RPMI 5 mM glucose + 10% dialyzed FBS, 1.71 µM
[31] = RPMI 5 mM glucose + 10% dialyzed FBS, 5.12 µM
[32] = RPMI 5 mM glucose + 10% dialyzed FBS, 15.4 µM
[33] = RPMI 5 mM glucose + 10% dialyzed FBS, 46.1 µM

Row | Compound | cell viability [1] | cell viability [2] | cell viability [3] | cell viability [4] | cell viability [5] | cell viability [6] | cell viability [7] | cell viability [8] | cell viability [9] | cell viability [10] | cell viability [11] | cell viability [12] | cell viability [13] | cell viability [14] | cell viability [15] | cell viability [16] | cell viability [17] | cell viability [18] | cell viability [19] | cell viability [20] | cell viability [21] | cell viability [22] | cell viability [23] | cell viability [24] | cell viability [25] | cell viability [26] | cell viability [27] | cell viability [28] | cell viability [29] | cell viability [30] | cell viability [31] | cell viability [32] | cell viability [33]
1 | Cc1ncc([N+](=O)[O-])n1CCO | 100% | 94% | 104% | 104% | 112% | 105% | 103% | 111% | 118% | 100% | 108% | 104% | 118% | 103% | 111% | 118% | 109% | 109% | 117% | 121% | 105% | 104% | 107% | 109% | 123% | 122% | 114% | 146% | 127% | 115% | 122% | 124% | 130%
2 | OC1=CC=C(C=C1)\C2=C\C(=O)C3=C(O2)C=C(O)C=C3O | 106% | 111% | 115% | 112% | 113% | 108% | 108% | 94.4% | 106% | 113% | 96.3% |  |  |  |  |  |  |  |  |  |  |  | 92% | 121% | 119% | 109% | 111% | 108% | 108% | 94.9% | 93.6% | 98% | 64.2%
3 | O=[N+]([O-])c1cnc(Sc2nnc(O)n2-c2ccc3c(c2)OCCO3)s1 | 90.4% | 69.9% | 80.1% | 82.6% | 73.2% | 86.9% | 102% | 84.3% | 83.2% | 2.06% | 2.49% | 87.5% | 70.9% | 87.6% | 87.8% | 89% | 88.6% | 100% | 73.1% | 71.4% | 2.18% | 2.5% | 82.7% | 67.9% | 81.6% | 84.1% | 77.4% | 88.2% | 85.1% | 86.7% | 77.9% | 2.08% | 2.84%
4 | Cc1[nH]c(/C=C2\C(=O)Nc3ccc([S+](=O)([O-])Cc4c(Cl)cccc4Cl)cc32)c(C)c1C(=O)N1CCC[C@@H]1CN1CCCC1 | 100% | 103% | 102% | 103% | 112% | 96.6% | 94.8% | 76.5% | 6.42% | 45.4% | 9.75% | 116% | 114% | 107% | 116% | 111% | 118% | 109% | 101% | 25.7% | 56.7% | 34% | 84.9% | 99.4% | 85.3% | 94.2% | 86.8% | 93.2% | 92.4% | 72.5% | 42% | 42.3% | 26.7%
5 | COc1cccc2c1C(=O)c1c(O)c3c(c(O)c1C2=O)C[C@@](O)(C(C)=O)C[C@@H]3O[C@H]1C[C@H](N)[C@H](O)[C@H](C)O1 | 74.5% | 83.9% | 85.3% | 90.3% | 55.3% | 25.3% | 7.3% | 7.11% | 6.71% | 7.18% | 5.34% | 82.3% | 98.4% | 91.9% | 77.3% | 40% | 21.8% | 7.4% | 7.93% | 7.89% | 7.75% | 6.05% | 88.6% | 89% | 96.2% | 84.3% | 59.2% | 29.4% | 9.48% | 8.29% | 8.52% | 8.22% | 6.01%
6 | COC1(C[S+]([O-])c2ccccc2)CCN(CCc2c[nH]c3ccc(F)cc23)CC1 (stereo unspecified) | 119% | 119% | 122% | 104% | 123% | 111% | 109% | 100% | 122% | 110% | 93.5% | 120% | 109% | 117% | 106% | 119% | 113% | 116% | 111% | 117% | 110% | 95.6% |  |  |  |  |  |  |  |  |  |  | 
7 | C=CCn1c(=O)c2cnc(Nc3ccc(N4CCN(C)CC4)cc3)nc2n1-c1cccc(C(C)(C)O)n1 | 117% | 118% | 127% | 110% | 98.6% | 81.4% | 61.4% | 28.3% | 25.7% | 24.5% | 29.4% |  |  |  |  |  |  |  |  |  |  |  | 111% | 119% | 135% | 93.5% | 90.8% | 64.6% | 52.7% | 26.3% | 15.7% | 19.3% | 21.8%
8 | O=c1[nH]cnc2c1ncn2[C@H]1CC[C@@H](CO)O1 | 85.7% | 97% | 104% | 102% | 88.3% | 101% | 102% | 110% | 99.8% | 90.5% | 69.4% | 85.1% | 86.6% | 98% | 95.8% | 90.8% | 86.4% | 99.9% | 94% | 83.4% | 60.8% | 47.4% | 77.6% | 86.1% | 84.3% | 85.2% | 77.7% | 97.6% | 105% | 92.7% | 99.5% | 67.8% | 70.3%
